Results from patent publication US8895744B2, “Alfa-carboline inhibitors of NPM-ALK, RET, and Bcr-Abl” (Universita' Degli Studi di Milano-Bicocca, priority 2008, dated 2014).

Key:
[1] = target: T1, Recombinant ALK kinase (Homo sapiens, UniProt Q9UM73); test: ALK kinase inhibitory activity, ELISA-based in vitro kinase assay; type: biochemical; conditions: purified rALK, 0.3 mM ATP, read-out: ALK IC50
T1 construct: made in house; host or cells: Sf9 insect cells (baculovirus)
Description: 36. Alk Kinase Inhibitory Activity
(§1) Method: ELISA-Based In Vitro Kinase Assay
(§2) Recombinant ALK kinase was expressed in Sf9 insect cells using the pBlueBacHis2C baculovirus vector system and purified using an anion exchange Fast Flow Q-sepharose column (Amersham-Pharmacia Biotech) followed by HiTrap™-nickel affinity column (Amersham-Pharmacia Biotech). Purified ALK protein was used to screen inhibitors in the ELISA-based kinase assay. A Nunc Immuno 96 well plate was incubated overnight at 37° C. with coating solution (125 μL/well) containing ALK peptide substrate ([…]) (SEQ ID NO: 1) at various concentrations in PBS. Wells were then washed with 200 μL of wash buffer (PBS-Tween 0.05%) and left to dry for at least 2 h at 37° C. The kinase reaction was performed in the presence of 50 mM Tris pH 7.5, 5 mM MnCl2, 5 mM MgCl2, 0.3 mM ATP and purified rALK in a total volume of 100 μL/well at 30° C. for 15 min. For inhibitor testing the reaction mix was preincubated with the inhibitor or solvent control for 10 min at room temperature before transferring to the ELISA plate. After the reaction wells were washed 5 times with 200 μL of wash buffer. Phosphorylated peptide was detected using 100 μL/well of a mouse monoclonal anti-phosphotyrosine antibody (clone 4G10 Upstate Biotech Ltd) diluted 1:2000 in PBS+4% BSA. After 30 min incubation at room temperature the antibody was removed and wells were washed as described above. 100 μL of a secondary antibody (anti-mouse IgG, Horseradish Peroxidase linked whole antibody, Amersham Pharmacia Biotech) diluted 1:1000 in PBS+4% BSA was added to each well and the plate was incubated again for 30 min at room temperature before washing as above. The plate was developed using 100 μL/well TMB Substrate Solution (Endogen) and the reaction was stopped by adding an equiv.ual volume of H2SO4 0.36 M. Finally, the absorbance was read at 450 nm using an Ultrospec® 300 spectrophotometer (Amersham-Pharmacia Biotech). The concentration of the test solution showing 50% inhibition as compared with the control was expressed as IC50 (μM).

[2] = test system: parent untransformed BaF3 cells; test: Tritiated thymidine uptake cell proliferation assay, parental BaF3 (control); type: cell-based; conditions: Mus musculus, 3[H]-thymidine uptake, 72 h, medium with IL-3, read-out: BaF parental IC50
Description: (§3) Method: Tritiated Thymidine Uptake Cell Proliferation Assay
(§4) The following procedure was used with parent untransformed BaF3 cells, BaF3 cells transformed with the oncogenic fusion protein NPM/ALK, NPM/ALK positive SUDHL-1 cells, ALK-negative U937 cells, NPM/ALK positive KARPAS-299 cells. The parent untransformed BaF3 cells and Alk-negative U937 cells are used as controls. Cells were seeded in U-bottomed 96-well plates at 10 000 cells/well in a volume of 100 μL in supplemented medium. In the case of the parent untransformed BaF3 cells, the medium was supplemented with IL-3. Serial dilutions of inhibitors were added to the appropriate wells and volumes adjusted to 200 μL. Controls were treated with the equivalent volume of vehicle, DMSO, alone. Plates were incubated at 37° C. for 72 h. ^3[H]-thymidine (1 μCi/well) was added for the last 16 h of incubation. Cells were harvested on to paper filters and ^3[H]-thymidine incorporation was measured using a β scintillation counter (1430 MicroBeta, Wallac, Turku, Finland). The 50% inhibitory concentration (IC50) was defined as the concentration of inhibitor, expressed in micromolar, that gave a 50% decrease in ^3[H]-thymidine uptake compared with controls.
as §4, with “protein bcr-abl, Abl-negative” for “protein NPM/ALK, NPM/ALK positive SUDHL-1 cells, ALK-negative”, “cells, or Bcr-abl” for “cells, NPM/ALK”, “positive LAMA-84” for “positive KARPAS-299”, “and Abl-negative” for “and Alk-negative”, “in ^3H-thymidine” for “in ^3[H]-thymidine”
as §4, with “RET-PTC2, or RET-negative 11937” for “NPM/ALK, NPM/ALK positive SUDHL-1 cells, ALK-negative U937 cells, NPM/ALK positive KARPAS-299”, “RET-negative” for “Alk-negative”

[3] = target: T2, BaF3 cells transformed with the oncogenic fusion protein NPM/ALK (Homo sapiens, UniProt Q9UM73); test: Tritiated thymidine uptake cell proliferation assay, BaF3 NPM/ALK; type: cell-based; conditions: 3[H]-thymidine uptake, 72 h; read-out: BaF NPM/ALK IC50
T2 construct: fused on or other part: P06748 (Nucleophosmin)
T2 sequence (Q9UM73 whole entry, change not shown, the tested form may be a part): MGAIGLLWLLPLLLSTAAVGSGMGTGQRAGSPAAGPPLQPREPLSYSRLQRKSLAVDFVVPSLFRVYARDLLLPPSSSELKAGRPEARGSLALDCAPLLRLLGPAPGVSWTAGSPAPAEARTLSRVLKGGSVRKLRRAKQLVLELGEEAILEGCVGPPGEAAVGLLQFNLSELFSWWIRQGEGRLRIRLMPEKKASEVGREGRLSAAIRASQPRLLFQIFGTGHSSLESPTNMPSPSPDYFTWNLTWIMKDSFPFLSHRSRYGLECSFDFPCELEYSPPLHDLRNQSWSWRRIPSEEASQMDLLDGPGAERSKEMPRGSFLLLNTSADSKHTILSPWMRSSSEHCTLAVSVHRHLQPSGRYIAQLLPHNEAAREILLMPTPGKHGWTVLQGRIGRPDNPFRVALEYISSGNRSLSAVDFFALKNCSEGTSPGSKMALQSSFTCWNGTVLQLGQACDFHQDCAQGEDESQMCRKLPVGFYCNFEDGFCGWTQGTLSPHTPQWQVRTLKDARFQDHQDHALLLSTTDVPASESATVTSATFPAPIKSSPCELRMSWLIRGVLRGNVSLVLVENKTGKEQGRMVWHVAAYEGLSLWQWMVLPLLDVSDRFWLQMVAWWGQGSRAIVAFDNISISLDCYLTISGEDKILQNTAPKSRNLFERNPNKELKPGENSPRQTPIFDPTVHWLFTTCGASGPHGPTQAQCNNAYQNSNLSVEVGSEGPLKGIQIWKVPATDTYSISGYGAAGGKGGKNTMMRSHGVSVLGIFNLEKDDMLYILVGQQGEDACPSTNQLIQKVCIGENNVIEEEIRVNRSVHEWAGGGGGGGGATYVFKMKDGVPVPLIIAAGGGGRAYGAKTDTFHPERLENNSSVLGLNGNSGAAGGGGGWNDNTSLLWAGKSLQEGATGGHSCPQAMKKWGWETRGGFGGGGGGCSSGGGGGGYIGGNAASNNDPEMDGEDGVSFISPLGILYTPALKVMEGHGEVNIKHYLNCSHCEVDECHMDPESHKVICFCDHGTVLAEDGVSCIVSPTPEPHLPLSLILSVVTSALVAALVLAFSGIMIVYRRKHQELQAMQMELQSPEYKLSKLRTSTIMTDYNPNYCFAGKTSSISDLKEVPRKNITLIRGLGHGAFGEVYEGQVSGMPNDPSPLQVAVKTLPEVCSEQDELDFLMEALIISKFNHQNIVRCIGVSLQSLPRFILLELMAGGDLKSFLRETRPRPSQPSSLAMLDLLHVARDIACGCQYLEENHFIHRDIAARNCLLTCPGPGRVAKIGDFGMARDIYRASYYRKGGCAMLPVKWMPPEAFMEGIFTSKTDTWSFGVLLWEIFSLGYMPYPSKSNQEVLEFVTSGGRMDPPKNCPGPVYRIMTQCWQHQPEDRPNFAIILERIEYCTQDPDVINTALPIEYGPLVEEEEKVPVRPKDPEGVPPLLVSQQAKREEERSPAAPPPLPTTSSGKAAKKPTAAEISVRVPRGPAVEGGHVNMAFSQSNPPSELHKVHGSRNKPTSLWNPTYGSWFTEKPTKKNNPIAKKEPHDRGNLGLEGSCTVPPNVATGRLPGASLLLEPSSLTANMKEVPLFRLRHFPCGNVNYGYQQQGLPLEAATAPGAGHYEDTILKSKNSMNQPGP
Description: (§5) Inhibition of the proliferation of NPM/ALK positive cells
as §3, §4

[4] = target: T3, Recombinant Abl T315I protein (Homo sapiens, UniProt P00519, T315I); test: Abl T315I mutant kinase inhibitory activity, ELISA-based in vitro kinase assay; type: biochemical; conditions: purified Abl T315I, 0.3 mM ATP
T3 construct: made in house; host or cells: Sf9 cells (baculovirus)
Description: as §2
37. Abl T315I Mutant Kinase Inhibitory Activity
as §1
(§6) Recombinant Abl T315I protein was expressed in Sf9 cells using the pBlueBacHis2C baculovirus expression vector. Abl T315I was purified using an anion exchange Fast Flow Q-sepharose column (Amersham-Pharmacia Biotech) followed by HiTrap™-nickel affinity column (Amersham-Pharmacia Biotech). Purified Abl T315I was used in the ELISA-based kinase assay to screen inhibitors as described above. The kinase reaction was performed in the presence of 50 mM Tris pH 7.5, 1 mM MnCl2, 5 mM MgCl2, 0.3 mM ATP, peptide substrate ([…]) (SEQ ID NO: 1) and purified Abl T315I. The concentration of the test solution showing 50% inhibition as compared with the control was expressed as IC50 (μM).

[5] = test system: NPM/ALK positive SUDHL-1 cells; test: Tritiated thymidine uptake cell proliferation assay, SUDHL-1; type: cell-based; conditions: 3[H]-thymidine uptake, 72 h
Description: as §5, §3, §4

[6] = target: T4, Recombinant Ret protein (Homo sapiens, UniProt P07949); test: RET kinase inhibitory activity, ELISA-based in vitro kinase assay; type: biochemical; conditions: purified Ret, 0.3 mM ATP
T4 construct: made in house; host or cells: Sf9 cells (baculovirus)
T4 sequence (P07949 29-1114): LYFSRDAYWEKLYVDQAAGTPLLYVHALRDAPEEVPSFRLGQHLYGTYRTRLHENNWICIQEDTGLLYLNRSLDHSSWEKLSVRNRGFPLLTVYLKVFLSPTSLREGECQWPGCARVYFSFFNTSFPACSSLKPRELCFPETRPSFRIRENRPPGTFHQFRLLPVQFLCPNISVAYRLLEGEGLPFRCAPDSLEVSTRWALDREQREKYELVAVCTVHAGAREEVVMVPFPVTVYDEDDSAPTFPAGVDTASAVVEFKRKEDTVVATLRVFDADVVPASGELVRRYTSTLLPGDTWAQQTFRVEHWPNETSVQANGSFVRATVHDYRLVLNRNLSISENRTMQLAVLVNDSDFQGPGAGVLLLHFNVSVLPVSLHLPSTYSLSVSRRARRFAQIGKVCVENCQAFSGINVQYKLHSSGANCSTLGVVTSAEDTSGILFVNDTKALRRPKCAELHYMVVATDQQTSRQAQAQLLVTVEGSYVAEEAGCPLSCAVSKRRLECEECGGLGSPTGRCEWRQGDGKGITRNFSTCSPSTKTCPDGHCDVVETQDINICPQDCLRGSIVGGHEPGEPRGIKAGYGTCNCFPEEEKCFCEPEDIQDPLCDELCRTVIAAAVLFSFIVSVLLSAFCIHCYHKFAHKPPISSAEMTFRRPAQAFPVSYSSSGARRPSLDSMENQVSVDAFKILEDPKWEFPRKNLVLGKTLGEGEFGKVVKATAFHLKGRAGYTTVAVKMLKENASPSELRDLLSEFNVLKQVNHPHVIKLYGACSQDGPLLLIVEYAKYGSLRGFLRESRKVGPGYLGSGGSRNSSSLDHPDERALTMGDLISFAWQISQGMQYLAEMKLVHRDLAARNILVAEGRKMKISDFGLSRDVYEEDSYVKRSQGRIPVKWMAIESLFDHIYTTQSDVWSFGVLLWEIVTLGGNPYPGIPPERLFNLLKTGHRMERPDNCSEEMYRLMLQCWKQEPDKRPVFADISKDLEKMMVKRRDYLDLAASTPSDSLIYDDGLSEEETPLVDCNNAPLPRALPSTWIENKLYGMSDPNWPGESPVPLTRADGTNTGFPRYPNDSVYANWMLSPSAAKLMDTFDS
Description: as §2
38. RET Kinase Inhibitory Activity
as §1
as §6, with “Ret” for “Abl T315I”, “Ret.” for “Abl T315I.”

T1 sequence (Q9UM73 19-1620): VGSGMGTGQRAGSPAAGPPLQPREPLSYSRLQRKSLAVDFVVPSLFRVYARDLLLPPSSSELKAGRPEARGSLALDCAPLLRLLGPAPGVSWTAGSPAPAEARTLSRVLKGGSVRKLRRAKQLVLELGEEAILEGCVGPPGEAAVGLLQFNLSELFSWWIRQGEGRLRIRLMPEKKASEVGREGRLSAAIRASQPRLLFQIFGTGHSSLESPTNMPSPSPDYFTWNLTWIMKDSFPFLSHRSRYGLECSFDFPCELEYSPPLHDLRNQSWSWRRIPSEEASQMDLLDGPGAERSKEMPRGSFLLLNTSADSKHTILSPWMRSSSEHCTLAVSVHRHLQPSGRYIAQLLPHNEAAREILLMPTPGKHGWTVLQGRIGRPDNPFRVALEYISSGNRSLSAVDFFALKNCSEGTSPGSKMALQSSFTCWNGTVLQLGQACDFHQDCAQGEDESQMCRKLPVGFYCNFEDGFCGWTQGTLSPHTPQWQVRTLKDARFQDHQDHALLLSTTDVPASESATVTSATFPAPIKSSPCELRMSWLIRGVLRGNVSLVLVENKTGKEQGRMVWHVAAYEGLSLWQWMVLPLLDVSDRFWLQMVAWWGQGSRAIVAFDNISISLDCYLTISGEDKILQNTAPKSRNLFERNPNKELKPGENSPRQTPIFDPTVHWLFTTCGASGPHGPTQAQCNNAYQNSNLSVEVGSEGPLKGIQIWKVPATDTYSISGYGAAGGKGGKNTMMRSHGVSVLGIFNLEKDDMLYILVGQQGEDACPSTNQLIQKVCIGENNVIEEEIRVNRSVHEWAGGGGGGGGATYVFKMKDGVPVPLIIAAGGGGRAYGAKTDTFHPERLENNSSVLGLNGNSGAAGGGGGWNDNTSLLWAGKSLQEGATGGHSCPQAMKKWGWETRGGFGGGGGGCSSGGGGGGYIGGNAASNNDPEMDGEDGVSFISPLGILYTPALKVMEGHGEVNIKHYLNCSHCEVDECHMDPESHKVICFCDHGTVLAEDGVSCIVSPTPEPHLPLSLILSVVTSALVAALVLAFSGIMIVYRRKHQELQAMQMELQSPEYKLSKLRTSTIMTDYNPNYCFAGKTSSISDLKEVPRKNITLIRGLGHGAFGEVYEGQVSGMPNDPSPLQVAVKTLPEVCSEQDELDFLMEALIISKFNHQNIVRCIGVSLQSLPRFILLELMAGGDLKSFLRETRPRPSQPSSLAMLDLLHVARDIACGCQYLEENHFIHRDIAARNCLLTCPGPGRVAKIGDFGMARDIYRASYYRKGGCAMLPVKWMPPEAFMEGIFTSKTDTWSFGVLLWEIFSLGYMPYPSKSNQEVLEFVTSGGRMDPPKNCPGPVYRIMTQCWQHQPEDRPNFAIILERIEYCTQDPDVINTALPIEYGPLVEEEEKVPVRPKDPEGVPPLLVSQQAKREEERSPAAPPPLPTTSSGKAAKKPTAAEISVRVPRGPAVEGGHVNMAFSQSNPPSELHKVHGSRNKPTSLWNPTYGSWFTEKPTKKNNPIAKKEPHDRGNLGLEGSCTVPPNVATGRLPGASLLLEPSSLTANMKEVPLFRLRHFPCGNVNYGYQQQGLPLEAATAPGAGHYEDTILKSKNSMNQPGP

| SMILES | melting point | IC50 [1] | GI50 [3] | IC50 [4] | IC50 [5] | IC50 [6] | IC50 [2] |
| --- | --- | --- | --- | --- | --- | --- | --- |
| COc1ccc(-c2ccnc3[nH]c4ccccc4c23)cc1 [R309, 4-(4-methoxyphenyl)-9H-pyrido[2,3-b]indole] | 208 to 210 °C | 4 ± 0.2 µM | 25 µM | 1.6 µM |  |  | 15 µM |
| O=[N+]([O-])c1cccc(-c2ccnc3[nH]c4ccccc4c23)c1 [R331, 4-(3-nitrophenyl)-9H-pyrido[2,3-b]indole] | > 220 °C | > 100 µM | 40 µM |  |  |  | > 100 µM |
| C(=C\c1ccc2c(n1)[nH]c1ccccc12)/c1ccccc1 [R300, 2-(2′-phenylethenyl)-9H-pyrido[2,3-b]indole] |  |  | 80 µM | > 100 µM | > 100 µM | 4.8 µM | > 100 µM |
| Oc1cnc2[nH]c3ccc(CCc4ccccc4)cc3c2c1 [R276] |  | 0.5 ± 0.1 µM | > 25 µM |  |  | 1 µM | > 25 µM |
| c1coc(-c2ccc3c(n2)[nH]c2ccccc23)c1 [R326, 2-(furan-2-yl)-9H-pyrido[2,3-b]indole] | 208 to 210 °C |  | 19 µM |  |  |  | 8.8 µM |
| C(=C\c1cnc2[nH]c3ccc(-c4ccc(N5CCOCC5)cn4)cc3c2c1)/c1ccccc1 [R307, 6-(5-morpholin-4-yl-pyridin-2-yl)-3-(2′-phenylethenyl)-9H-pyrido[2,3-b]indole] |  | 0.5 ± 0.1 µM | 40 µM | 3.1 ± 0.1 µM |  | > 100 µM | > 100 µM |
| O=c1[nH]c(-c2ccc3[nH]c4ncccc4c3c2)cs1 [R221, 4-(9H-pyrido[2,3-b]indol-6-yl)thiazol-2(3H)-one] |  | 19 ± 1.8 µM |  | 53 ± 16 µM |  | 82 ± 3.2 µM |  |

Further lines, with some results ahead:

| melting point | IC50 [1] | GI50 [3] | IC50 [4] | IC50 [5] | IC50 [6] | SMILES | IC50 [2] |
| --- | --- | --- | --- | --- | --- | --- | --- |
|  |  | 0.5 ± 0.2 µM | 48 µM | 0.2 ± 0.02 µM | 5.7 µM | CCN(CC)CCSCC(=O)c1ccc2[nH]c3ncc(Cl)cc3c2c1 [R283, 1-(3-Chloro-9H-pyrido[2,3-b]indol-6-yl)-2-(N,N-diethylaminoethylsulfanyl)ethanone] | 3.6 ± 1.8 µM |
|  |  | 1 µM | 19 µM | 0.6 µM | 14 µM | O=C(CSc1nc2ccccc2[nH]1)c1ccc2[nH]c3ncc(Cl)cc3c2c1 [R274, 2-(1H-Benzoimidazol-2-ylsulfanyl)-1-(3-chloro-9H-pyrido[2,3-b]indol-6-yl)ethanone] | 0.9 µM |
|  |  | 2.5 µM | 41 µM | > 25 µM | 19 µM | O=C(CSc1ccccn1)c1ccc2[nH]c3ncc(Cl)cc3c2c1 [R272, 1-(3-Chloro-9H-pyrido[2,3-b]indol-6-yl)-2-(pyridin-2-ylsulfanyl)ethanone] | 2 µM |
|  | 20 ± 0.6 µM | 8 µM | > 100 µM | > 25 µM | 27 µM | O=C(CSc1ccccc1)c1ccc2[nH]c3ncc(Cl)cc3c2c1 [R275, 1-(3-Chloro-9H-pyrido[2,3-b]indol-6-yl)-2-phenylsulfanylethanone] | 2 µM |
|  | 36 ± 14 µM |  | > 100 µM |  | 41 µM | CN(C)CCSCC(=O)c1ccc2[nH]c3ncc(Cl)cc3c2c1 [R284, 1-(3-Chloro-9H-pyrido[2,3-b]indol-6-yl)-2-(2,2-dimethylaminoethylsulfanyl)ethanone] |  |
|  |  | > 50 µM | > 100 µM |  | 3.6 µM | O=C(CSc1cccc(Br)c1)c1ccc2[nH]c3ncc(Cl)cc3c2c1 [R279, 2-(3-Bromophenylsulfanyl)-1-(3-chloro-9H-pyrido[2,3-b]indol-6-yl)ethanone] | > 50 µM |
|  |  | > 50 µM | 33 µM |  | 3.6 µM | O=C(CSCCOc1ccccc1)c1ccc2[nH]c3ncc(Cl)cc3c2c1 [R280, 1-(3-Chloro-9H-pyrido[2,3-b]indol-6-yl)-2-(2-phenoxyethylsulfanyl)ethanone] | 37 µM |
|  |  | 14 µM | 36 µM | 0.7 µM | 9.5 µM | O=C(CSC1=NCCS1)c1ccc2[nH]c3ncc(Cl)cc3c2c1 [R282, 1-(3-chloro-9H-pyrido[2,3-b]indol-6-yl)-2-(4,5-dihydrothiazol-2-ylsulfanyl)éthanone] | 32 µM |
|  |  |  | 20 ± 0.67 µM | 9.4 µM | 34 ± 27 µM | O=Cc1ccc2[nH]c3ncc(Cl)cc3c2c1 [R267] | 17 µM |
|  |  | 19 µM | 4.4 µM | > 25 µM | 2 µM | O=C(CSc1nc2ccccc2s1)c1ccc2[nH]c3ncc(Cl)cc3c2c1 [R273, 2-(Benzothiazol-2-ylsulfanyl)-1-(3-chloro-9H-pyrido[2,3-b]indol-6-yl)ethanone] | 14 µM |
